Test results from patent US9763572B2, “Quantitative pupillometry as a bedside predictor of postoperative respiratory depression” (Children's Hospital Medical Center, priority 2015, dated 2017).

Columns and labels:
[1] = Blood morphine, M3G and M6G concentrations in the recovery room (LC-MS/MS) in children undergoing tonsillectomy; conditions: mean±SD
pupil [2] = experiment: Serial quantitative pupillometry after intraoperative morphine in the pediatric study; assay type: in vivo, children
[3] = system: children undergoing tonsillectomy; experiment: Postoperative respiratory depression and its association with ABCB1 genetic variants in children given morphine; conditions: per added copy of minor allele (G) of ABCB1 rs9282564; 263 children; 95% CI: 2.1-10.8, p=0.0002
pupil [4] = conditions: used as prophylactic antiemetic; cited from earlier work
[5] = children who did not have respiratory depression with prolonged PACU stay
[6] = children who had respiratory depression and prolonged PACU stay due to respiratory depression

Row | SMILES | levels in the recovery room [1, 5] [ng/mL] | levels in the recovery room [1, 6] [ng/mL] | pupillary maximum constriction velocity (MCV) vs blood morphine concentration (pupil [2]; FIG. 3, perioperative time points) | pupillary measures (maximum and minimum pupillary sizes, constriction percentage, maximum constriction velocity) (pupil [2]; after intraoperative morphine bolus, under general anesthesia, FIGS. 2A-2D) | PACU pupillary measures compared to the baseline values (pupil [2]; recovery room (PACU) vs preoperative baseline) | increase in odds of a prolonged hospital stay due to postoperative respiratory depression [3] [fold] | interference with quantitative pupillometry responses (pupil [4])
1 | CN1CC[C@]23c4c5ccc(O)c4O[C@H]2[C@@H](O)C=C[C@H]3[C@H]1C5 [morphine] | 8.4 ± 7.9 | 2.25 ± 2.3 | decreased as blood morphine concentration increased | incremental reductions in all these pupillary measures | residual depressive effects | 4.7 | 
2 | CN1CC[C@]23c4c5ccc(O[C@@H]6O[C@H](C(=O)O)[C@@H](O)[C@H](O)[C@H]6O)c4O[C@H]2[C@@H](O)C=C[C@H]3[C@H]1C5 [M3G, Morphine-3 Glucuronide] | 0.0607 ± 0.0451 | 0.0431 ± 0.037 |  |  |  |  | 
3 | CN1CC[C@]23c4c5ccc(O)c4O[C@H]2[C@@H](O[C@@H]2O[C@H](C(=O)O)[C@@H](O)[C@H](O)[C@H]2O)C=C[C@H]3[C@H]1C5 [M6G, Morphine-6 Glucuronide] | 0.0117 ± 0.0071 | 0.0091 ± 0.0039 |  |  |  |  | 
4 | Cc1nccn1CC1CCc2c(c3ccccc3n2C)C1=O (centres unmarked) [ondansetron] |  |  |  |  |  |  | does not interfere with quantitative pupillometry responses
